Measured values published in ChEMBL document CHEMBL5291721, “A preclinical secondary pharmacology resource illuminates target-adverse drug reaction associations of marketed drugs” (Nat Commun, 2023).

How the values were obtained:
Acetylcholinesterase = Acetylcholinesterase (Homo sapiens, UniProt P22303); type: functional
Prothrombin = Prothrombin (Homo sapiens, UniProt P00734); type: functional
Estrogen receptor = target: T1, Estrogen receptor (Homo sapiens, UniProt P03372)
T1 sequence (P03372 whole entry): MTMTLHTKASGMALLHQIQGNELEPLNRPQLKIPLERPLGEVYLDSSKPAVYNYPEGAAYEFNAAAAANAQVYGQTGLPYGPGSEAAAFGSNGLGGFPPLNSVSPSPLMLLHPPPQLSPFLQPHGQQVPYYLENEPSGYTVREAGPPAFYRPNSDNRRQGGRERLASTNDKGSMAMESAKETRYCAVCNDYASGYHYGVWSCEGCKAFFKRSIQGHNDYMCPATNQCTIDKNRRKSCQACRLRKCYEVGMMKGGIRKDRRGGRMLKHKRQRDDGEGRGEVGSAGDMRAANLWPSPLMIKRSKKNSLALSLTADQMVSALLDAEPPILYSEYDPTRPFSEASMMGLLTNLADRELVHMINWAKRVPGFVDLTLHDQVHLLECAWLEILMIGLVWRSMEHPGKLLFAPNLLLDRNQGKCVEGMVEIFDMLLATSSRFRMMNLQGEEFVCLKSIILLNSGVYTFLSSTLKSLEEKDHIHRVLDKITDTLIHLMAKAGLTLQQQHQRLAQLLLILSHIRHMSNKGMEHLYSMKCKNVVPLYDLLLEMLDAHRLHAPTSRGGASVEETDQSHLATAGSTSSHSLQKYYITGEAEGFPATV

[1] = target: cGMP-inhibited 3',5'-cyclic phosphodiesterase 3A (Homo sapiens, UniProt Q14432); type: functional
[2] = target: T2, Alpha-2A adrenergic receptor (Homo sapiens, UniProt P08913)
T2 sequence (P08913 whole entry): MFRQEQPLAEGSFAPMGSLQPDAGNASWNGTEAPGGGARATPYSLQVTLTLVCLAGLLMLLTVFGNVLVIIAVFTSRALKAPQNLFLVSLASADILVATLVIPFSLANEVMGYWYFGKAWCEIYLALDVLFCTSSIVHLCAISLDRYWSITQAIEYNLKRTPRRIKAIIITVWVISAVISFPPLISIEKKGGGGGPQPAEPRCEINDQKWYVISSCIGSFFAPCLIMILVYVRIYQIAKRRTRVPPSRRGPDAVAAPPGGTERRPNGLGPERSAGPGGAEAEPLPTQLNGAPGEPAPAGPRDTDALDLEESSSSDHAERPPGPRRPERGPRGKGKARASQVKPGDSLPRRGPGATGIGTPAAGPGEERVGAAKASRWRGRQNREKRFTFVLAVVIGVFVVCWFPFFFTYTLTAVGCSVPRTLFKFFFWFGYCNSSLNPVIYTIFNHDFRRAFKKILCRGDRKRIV

[3] = target: T3, Muscarinic acetylcholine receptor M1 (Homo sapiens, UniProt P11229); type: functional, cell-based
T3 sequence (P11229 whole entry): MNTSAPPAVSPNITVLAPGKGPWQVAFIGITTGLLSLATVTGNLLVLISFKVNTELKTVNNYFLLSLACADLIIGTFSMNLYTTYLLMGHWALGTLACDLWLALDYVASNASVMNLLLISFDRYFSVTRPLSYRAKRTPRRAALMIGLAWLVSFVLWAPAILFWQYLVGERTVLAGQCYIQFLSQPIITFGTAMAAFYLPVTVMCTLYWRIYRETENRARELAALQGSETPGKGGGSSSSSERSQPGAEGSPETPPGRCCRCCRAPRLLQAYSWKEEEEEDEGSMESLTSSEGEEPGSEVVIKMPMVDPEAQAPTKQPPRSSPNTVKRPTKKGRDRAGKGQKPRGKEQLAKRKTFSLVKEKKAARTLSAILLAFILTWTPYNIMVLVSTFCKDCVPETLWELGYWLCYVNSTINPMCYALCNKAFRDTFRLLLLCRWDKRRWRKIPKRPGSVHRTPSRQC

[4] = target: Sodium-dependent serotonin transporter (Homo sapiens, UniProt P31645)
[5] = target: T3, Muscarinic acetylcholine receptor M1; type: functional, cell-based; remark: listed apart in the source
Melanocortin receptor 4 = Melanocortin receptor 4 (Homo sapiens, UniProt P32245)
[6] = target: T4, Neuropeptide Y receptor type 1 (Homo sapiens, UniProt P25929)
T4 sequence (P25929 whole entry): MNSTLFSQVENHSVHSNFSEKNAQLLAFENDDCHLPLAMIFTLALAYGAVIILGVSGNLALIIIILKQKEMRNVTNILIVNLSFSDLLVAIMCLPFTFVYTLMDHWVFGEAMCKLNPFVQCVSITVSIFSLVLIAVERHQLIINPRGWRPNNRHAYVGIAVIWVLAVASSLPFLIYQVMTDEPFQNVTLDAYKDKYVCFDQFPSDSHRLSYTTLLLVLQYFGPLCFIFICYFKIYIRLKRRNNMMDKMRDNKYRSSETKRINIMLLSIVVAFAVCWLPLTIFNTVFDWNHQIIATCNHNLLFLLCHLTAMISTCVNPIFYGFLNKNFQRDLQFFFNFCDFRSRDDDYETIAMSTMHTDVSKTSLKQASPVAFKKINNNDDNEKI

Endothelin-1 receptor = target: T5, Endothelin-1 receptor (Homo sapiens, UniProt P25101)
T5 sequence (P25101 whole entry): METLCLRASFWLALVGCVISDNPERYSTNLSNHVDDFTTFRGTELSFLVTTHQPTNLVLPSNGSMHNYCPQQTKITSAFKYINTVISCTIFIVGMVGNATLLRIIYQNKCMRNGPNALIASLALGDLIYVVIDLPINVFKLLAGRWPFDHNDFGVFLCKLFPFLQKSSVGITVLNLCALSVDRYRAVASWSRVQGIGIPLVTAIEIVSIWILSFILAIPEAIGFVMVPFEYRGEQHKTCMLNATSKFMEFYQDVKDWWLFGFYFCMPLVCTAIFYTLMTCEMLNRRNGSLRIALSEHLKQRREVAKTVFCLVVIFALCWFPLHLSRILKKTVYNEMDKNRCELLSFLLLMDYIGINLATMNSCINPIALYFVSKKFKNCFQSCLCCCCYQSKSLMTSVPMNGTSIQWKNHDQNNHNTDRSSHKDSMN

[7] = target: Kappa-type opioid receptor (Homo sapiens, UniProt P41145)
[8] = target: Voltage-dependent L-type calcium channel subunit alpha-1C (Rattus norvegicus, UniProt P22002); type: functional
Also: assay procedure not described here.

Sequence of cGMP-inhibited 3',5'-cyclic phosphodiesterase 3A (Q14432 whole entry): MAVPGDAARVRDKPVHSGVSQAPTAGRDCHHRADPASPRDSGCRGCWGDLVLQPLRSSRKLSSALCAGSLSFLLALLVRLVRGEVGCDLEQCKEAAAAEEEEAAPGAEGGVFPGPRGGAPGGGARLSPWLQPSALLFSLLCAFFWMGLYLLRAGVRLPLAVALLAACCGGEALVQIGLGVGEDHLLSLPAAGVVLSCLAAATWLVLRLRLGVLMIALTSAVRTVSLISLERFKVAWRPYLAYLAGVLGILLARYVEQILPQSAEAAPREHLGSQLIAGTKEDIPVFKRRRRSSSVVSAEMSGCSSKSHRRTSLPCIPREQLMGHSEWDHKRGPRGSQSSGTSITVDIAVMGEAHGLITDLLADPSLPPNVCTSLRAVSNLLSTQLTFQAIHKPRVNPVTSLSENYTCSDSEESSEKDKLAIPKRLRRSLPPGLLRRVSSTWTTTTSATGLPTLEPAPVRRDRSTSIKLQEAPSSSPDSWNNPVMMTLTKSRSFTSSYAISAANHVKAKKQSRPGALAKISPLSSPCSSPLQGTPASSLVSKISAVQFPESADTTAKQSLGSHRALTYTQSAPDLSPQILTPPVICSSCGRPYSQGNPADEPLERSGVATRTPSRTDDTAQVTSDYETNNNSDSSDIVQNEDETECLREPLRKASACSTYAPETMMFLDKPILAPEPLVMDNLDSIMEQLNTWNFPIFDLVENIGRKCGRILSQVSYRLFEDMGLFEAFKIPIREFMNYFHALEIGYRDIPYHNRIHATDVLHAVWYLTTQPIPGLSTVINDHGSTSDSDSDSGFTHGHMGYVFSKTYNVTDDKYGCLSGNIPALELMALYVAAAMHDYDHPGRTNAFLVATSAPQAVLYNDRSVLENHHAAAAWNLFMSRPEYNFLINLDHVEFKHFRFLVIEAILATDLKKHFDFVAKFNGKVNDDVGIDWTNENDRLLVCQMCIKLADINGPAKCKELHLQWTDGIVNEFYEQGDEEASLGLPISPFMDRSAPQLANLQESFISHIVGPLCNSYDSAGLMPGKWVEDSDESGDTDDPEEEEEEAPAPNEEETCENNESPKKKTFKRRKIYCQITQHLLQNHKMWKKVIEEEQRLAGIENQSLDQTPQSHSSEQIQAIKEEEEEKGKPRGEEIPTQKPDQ
Sequence of Melanocortin receptor 4 (P32245 whole entry): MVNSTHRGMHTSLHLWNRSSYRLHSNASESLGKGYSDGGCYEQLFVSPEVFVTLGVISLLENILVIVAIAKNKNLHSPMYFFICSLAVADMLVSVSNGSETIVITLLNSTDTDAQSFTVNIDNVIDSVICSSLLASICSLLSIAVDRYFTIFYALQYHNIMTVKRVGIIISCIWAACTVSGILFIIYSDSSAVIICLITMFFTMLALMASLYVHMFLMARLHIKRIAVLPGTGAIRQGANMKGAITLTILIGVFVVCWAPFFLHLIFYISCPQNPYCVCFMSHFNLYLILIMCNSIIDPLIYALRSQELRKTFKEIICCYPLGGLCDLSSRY
Sequence of Sodium-dependent serotonin transporter (P31645 whole entry): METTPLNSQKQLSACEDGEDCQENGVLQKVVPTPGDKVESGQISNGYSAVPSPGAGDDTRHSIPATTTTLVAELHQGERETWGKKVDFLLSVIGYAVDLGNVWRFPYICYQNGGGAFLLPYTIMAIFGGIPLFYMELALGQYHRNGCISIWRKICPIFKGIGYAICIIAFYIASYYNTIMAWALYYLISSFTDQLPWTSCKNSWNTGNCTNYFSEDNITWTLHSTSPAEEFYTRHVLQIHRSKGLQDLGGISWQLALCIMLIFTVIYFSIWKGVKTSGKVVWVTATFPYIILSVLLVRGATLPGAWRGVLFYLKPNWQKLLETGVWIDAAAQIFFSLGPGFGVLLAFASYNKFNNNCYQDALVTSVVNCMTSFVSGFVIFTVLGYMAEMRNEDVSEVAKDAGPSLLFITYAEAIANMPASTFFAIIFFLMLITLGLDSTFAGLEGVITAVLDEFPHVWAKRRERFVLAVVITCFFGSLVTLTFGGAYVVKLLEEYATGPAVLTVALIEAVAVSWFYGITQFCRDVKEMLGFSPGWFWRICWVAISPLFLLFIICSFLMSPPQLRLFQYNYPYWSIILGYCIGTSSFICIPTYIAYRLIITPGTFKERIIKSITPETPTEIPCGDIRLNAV
Sequence of Acetylcholinesterase (P22303 whole entry): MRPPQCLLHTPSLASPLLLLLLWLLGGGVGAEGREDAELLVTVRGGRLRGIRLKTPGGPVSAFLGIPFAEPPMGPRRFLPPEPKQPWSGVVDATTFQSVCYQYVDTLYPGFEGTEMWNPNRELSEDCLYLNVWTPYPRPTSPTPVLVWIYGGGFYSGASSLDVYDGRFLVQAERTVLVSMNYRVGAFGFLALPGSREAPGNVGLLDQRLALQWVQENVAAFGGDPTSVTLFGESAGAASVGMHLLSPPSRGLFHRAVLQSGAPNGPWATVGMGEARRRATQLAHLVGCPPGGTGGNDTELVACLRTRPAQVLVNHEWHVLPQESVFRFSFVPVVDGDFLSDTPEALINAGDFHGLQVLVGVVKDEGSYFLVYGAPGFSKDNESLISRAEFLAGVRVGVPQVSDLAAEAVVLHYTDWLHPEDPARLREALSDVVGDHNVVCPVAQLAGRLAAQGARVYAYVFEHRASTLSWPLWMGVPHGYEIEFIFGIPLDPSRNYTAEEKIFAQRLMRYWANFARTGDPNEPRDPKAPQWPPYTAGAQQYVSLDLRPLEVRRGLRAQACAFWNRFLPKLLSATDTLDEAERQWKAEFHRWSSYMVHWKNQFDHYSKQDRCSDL
Sequence of Kappa-type opioid receptor (P41145 whole entry): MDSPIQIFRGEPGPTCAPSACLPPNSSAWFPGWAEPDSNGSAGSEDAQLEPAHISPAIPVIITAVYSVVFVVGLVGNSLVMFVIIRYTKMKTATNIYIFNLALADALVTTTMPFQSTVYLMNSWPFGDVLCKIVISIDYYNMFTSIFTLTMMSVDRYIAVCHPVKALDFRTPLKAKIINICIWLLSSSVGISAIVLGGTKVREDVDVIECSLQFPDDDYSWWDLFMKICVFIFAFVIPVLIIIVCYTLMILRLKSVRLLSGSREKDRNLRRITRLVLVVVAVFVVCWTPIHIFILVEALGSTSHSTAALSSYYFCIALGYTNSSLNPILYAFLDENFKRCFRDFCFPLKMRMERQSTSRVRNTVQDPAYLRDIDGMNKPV

Row | Structure (SMILES) | AC50 (Acetylcholinesterase) | AC50 (Prothrombin) | AC50 (Estrogen receptor) | AC50 [1] | AC50 [2] | AC50 [3] | AC50 [4] | AC50 [5] | AC50 (Melanocortin receptor 4) | AC50 [6] | AC50 (Endothelin-1 receptor) | AC50 [7] | AC50 [8]
1 | C[N+](C)(C)CCO [CHOLINE] | > 30 µM | > 30 µM | > 30 µM | > 30 µM | > 30 µM | – | – | – | – | – | – | – | –
2 | OCCN1C[C@H](O)[C@@H](O)[C@H](O)[C@H]1CO [MIGLITOL] | > 30 µM | > 30 µM | > 30 µM | > 30 µM | > 30 µM | > 30 µM | > 30 µM | > 30 µM | – | – | – | – | –
3 | CCCCCCOc1nsnc1C1=CCCN(C)C1 [XANOMELINE] | 17.2 µM | > 30 µM | > 30 µM | > 30 µM | 1.39 µM | – | 18.5 µM | – | – | – | – | – | –
4 | COCc1c(C(C)C)nc(C(C)C)c(/C=C/[C@@H](O)C[C@@H](O)CC(=O)O)c1-c1ccc(F)cc1 [CERIVASTATIN] | > 30 µM | > 30 µM | 23.3 µM | > 30 µM | > 30 µM | – | – | – | – | – | – | – | –
5 | C[N+]1(C)CCC(OC(=O)C(O)(c2ccccc2)C2CCCC2)C1 (stereo not drawn) [GLYCOPYRRONIUM BROMIDE] | – | > 30 µM | > 30 µM | > 30 µM | – | – | – | – | > 30 µM | – | – | – | –
6 | COc1cc(NC(C)CCCN)c2ncccc2c1 (stereo not drawn) [PRIMAQUINE] | – | > 30 µM | > 30 µM | 22.5 µM | – | – | – | – | – | > 30 µM | > 30 µM | – | –
7 | CN(C)CC(c1ccc(O)cc1)C1(O)CCCCC1 (stereo not drawn) [DESVENLAFAXINE] | > 30 µM | > 30 µM | > 30 µM | > 30 µM | > 30 µM | > 30 µM | – | > 30 µM | – | – | – | – | –
8 | CN(C)CCN1C(=O)c2ccccc2N(C)c2ccccc21 [DIBENZEPIN] | > 30 µM | > 30 µM | > 30 µM | > 30 µM | 9.47 µM | > 30 µM | 1.32 µM | > 30 µM | – | – | – | – | –
9 | CCc1oc2ccccc2c1C(=O)c1cc(I)c(O)c(I)c1 [BENZIODARONE] | > 30 µM | > 30 µM | > 30 µM | > 30 µM | 29.9 µM | – | > 30 µM | – | – | – | – | – | –
10 | Cc1cn([C@H]2C[C@H](N=[N+]=[N-])[C@@H](CO)O2)c(=O)[nH]c1=O [ZIDOVUDINE] | > 30 µM | > 30 µM | > 30 µM | > 30 µM | > 30 µM | – | – | – | > 30 µM | > 30 µM | > 30 µM | > 10 µM | > 10 µM
11 | CN(C)S(=O)(=O)c1ccc2c(c1)N(CCCN1CCC(CCO)CC1)c1ccccc1S2 [PIPOTIAZINE] | > 30 µM | > 30 µM | > 30 µM | > 30 µM | 0.313 µM | > 30 µM | > 30 µM | 7.84 µM | – | – | – | – | –
12 | CC(C)Nc1ncccn1 [ISAXONINE] | > 30 µM | > 30 µM | > 30 µM | > 30 µM | > 30 µM | > 30 µM | > 30 µM | > 30 µM | – | – | – | – | –
13 | CC(=O)N[C@@H]1[C@@H](O)[C@H](O)[C@@H](CO)O[C@H]1O [N-ACETYLGLUCOSAMINE] | > 30 µM | > 30 µM | > 30 µM | > 30 µM | > 30 µM | > 30 µM | > 30 µM | > 30 µM | – | – | – | – | –
14 | CC[C@H]1OC(=O)[C@H](C)[C@@H](O[C@H]2C[C@@](C)(OC)[C@@H](O)[C@H](C)O2)[C@H](C)[C@@H](O[C@@H]2O[C@H](C)C[C@H](N(C)C)[C@H]2O)[C@](C)(O)C[C@@H](C)CN(C)[C@H](C)[C@@H](O)[C@]1(C)O [AZITHROMYCIN] | > 30 µM | > 30 µM | > 30 µM | > 30 µM | > 30 µM | – | – | – | > 30 µM | > 30 µM | > 30 µM | > 10 µM | > 10 µM
15 | CCC1=C(C)CN(C(=O)NCCc2ccc(S(=O)(=O)NC(=O)N[C@H]3CC[C@H](C)CC3)cc2)C1=O [GLIMEPIRIDE] | > 30 µM | > 30 µM | > 30 µM | > 30 µM | > 30 µM | – | – | – | – | – | – | – | –
16 | CC(C)(C)NC[C@H](O)COc1ccccc1C1CCCC1 [PENBUTOLOL] | > 30 µM | > 30 µM | > 30 µM | > 30 µM | 0.966 µM | > 30 µM | 5.53 µM | 13.5 µM | – | – | – | – | –
17 | N[C@H](C(=O)O)[C@H](O)c1ccc(O)c(O)c1 [DROXIDOPA] | > 30 µM | > 30 µM | > 30 µM | > 30 µM | > 30 µM | > 30 µM | > 30 µM | > 30 µM | – | – | – | – | –
18 | CCC(=O)NCC[C@@H]1CCc2ccc3c(c21)CCO3 [RAMELTEON] | > 30 µM | > 30 µM | > 30 µM | > 30 µM | > 30 µM | > 30 µM | > 30 µM | > 30 µM | – | – | – | – | –
19 | CN(C)[C@@H](c1cccc(O)c1)[C@H]1CCCC[C@H]1O [CIRAMADOL] | > 30 µM | > 30 µM | > 30 µM | > 30 µM | > 30 µM | > 30 µM | 27.5 µM | > 30 µM | – | – | – | – | –
20 | O=C(CCNNC(=O)c1ccncc1)NCc1ccccc1 [NIALAMIDE] | > 30 µM | > 30 µM | > 30 µM | > 30 µM | > 30 µM | > 30 µM | > 30 µM | > 30 µM | – | – | – | – | –
21 | O=C(O)c1cc(O)ccc1O [GENTISIC ACID] | > 30 µM | > 30 µM | > 30 µM | > 30 µM | > 30 µM | > 30 µM | > 30 µM | > 30 µM | – | – | – | – | –
22 | C=C[C@H]1C[N@@]2CC[C@H]1C[C@H]2[C@H](O)c1ccnc2ccc(OC)cc12 [QUININE] | > 30 µM | > 30 µM | > 30 µM | > 30 µM | 5.45 µM | > 30 µM | – | > 30 µM | – | – | – | – | –
